Results published in publication PMC6273036, “N-Alkoxyphenylhydroxynaphthalenecarboxamides and Their Antimycobacterial Activity” (Molecules, 2016).
In brackets after ≈: the same amount, converted by molar mass. Like-named read-outs stand apart in the source and are kept apart here.

How the values were obtained:
[1] = test system: Mycobacterium tuberculosis H37Ra ATCC 25177; assay: MTT assay, viability of M. tuberculosis H37Ra; type: cell-based; conditions: at the tested concentration equal to MICs; 7 days; positive result when viability less than 70%
Protocol: The MTT assay is a well-characterized method of assessing cell growth through measurement of respiration. For the purpose of this assay, a positive result was recorded when the MTT measured viability of M. tuberculosis H37Ra was less than 70% after exposure to the MIC of each test compound.
For the MTT (3-(4,5-dimethylthiazol-2-yl)-2,5-diphenyltetrazolium bromide) assay, the outer wells of a 96-well plate were filled with 200 µL of sterile water, and the inner wells were filled with 100 µL of the tested compound at the MIC to be examined. Compounds were prepared as previously stated and diluted in Middlebrook media to achieve the desired concentration. Mycobacterium tuberculosis H37Ra ATCC 25177 was suspended in ODAC supplemented Middlebrook broth at a MacFarland standard of 1.0 and then diluted 1:20, using Middlebrook broth as a diluent. The diluted mycobacteria (100 µL) were added to each well containing the compound to be tested. A negative growth control was composed of 100 µL of DMSO and 100 µL of the media, and the diluted mycobacteria in broth absent of inhibiting compounds were used as a positive growth control. All compounds and controls were prepared in triplicate. Plates were incubated at 37 °C for 7 days. After the incubation period, 10% well volume of MTT reagent was mixed into each well and incubated at 37 °C for 24 h. The reagent and media were then aspirated from the wells, to which 50 µL 99% isopropanol was then added, and the plates were read at 570 nm. The absorbance readings from the cells, grown in the presence of the tested compounds, were compared with uninhibited cell growth (using DMSO as the blank) to determine the relative percent viability. The percent viability was determined through the MTT assay. The percent viability is calculated through comparison of a measured value against that of the uninhibited control: %viability = OD570E/OD570P × 100, where OD570E is the reading from the compound-exposed cells, while OD570P is the reading from the uninhibited cells (positive control). Cytotoxic potential is determined by a percent viability of <70%.

M. smegmatis ATCC 700084 = assay: In vitro antimycobacterial evaluation (broth dilution micro-method, MIC) against M. smegmatis; type: cell-based; conditions: Mycolicibacterium smegmatis, ATCC700084, 72 h; Mycobacterium smegmatis ATCC 700084; MIC = IC90; 3 days incubation, visual
[2] = test system: human monocytic leukemia THP-1 cells; assay: In vitro antiproliferative assay (WST-1); conditions: THP-1, 24 h, read-out: IC50 (antiproliferative activity)
Protocol: Human monocytic leukemia THP-1 cells were used for in vitro antiproliferative assay. Cells were obtained from the European Collection of Cell Cultures (ECACC, Salisbury, UK) and routinely cultured in RPMI 1640 medium supplemented with 10% fetal bovine serum, 2% L-glutamine, 1% penicillin and streptomycin at 37 °C with 5% CO2. Cells were passaged at approximately one-week intervals. Antiproliferative activity of the compounds was determined using a Water Soluble Tetrazolium Salts-1 (WST-1, 2-(4-iodophenyl)-3-(4-nitrophenyl)-5-(2,4-disulfophenyl)-2H-tetrazolium) assay kit (Roche Diagnostics, Mannheim, Germany) according to the manufacturer’s instructions. The tested compounds were dissolved in DMSO and added in five increasing concentrations (0.37, 1.1, 3.3, 10 and 30 μM) to the cell suspension in the culture RPMI 1640 medium. The maximum concentration of DMSO in the assays never exceeded 0.1%. Subsequently, the cells were incubated for 24 h at 37 °C with 5% CO2. For WST-1 assays, cells were seeded into 96-well plates (5 × 10^4 cells/well in 100 μL culture medium) in triplicate in serum-free RPMI 1640 medium, and measurements were taken 24 h after the treatment with the compounds. The median inhibition concentration values, IC50, were deduced through the production of a dose-response curve. All data were evaluated using GraphPad Prism 5.00 software (GraphPad Software, San Diego, CA, USA).

[3] = test system: Mycobacterium kansasii DSM 44162; assay: In vitro antimycobacterial evaluation (broth dilution micro-method, MIC) against M. kansasii; type: cell-based; conditions: DSM44162, 168 h, M. kansasii DSM 44162, MIC = IC90, 7 days incubation, visual
[4] = test system: Mycobacterium tuberculosis H37Ra ATCC 25177; assay: In vitro antimycobacterial evaluation (alamarBlue, MIC) against M. tuberculosis; type: cell-based; conditions: 168 h, M. tuberculosis H37Ra ATCC 25177, MIC = 90% or greater (IC90) reduction of growth, 7 days
Protocol: The evaluation of the in vitro antimycobacterial activity of the compounds was performed against Mycobacterium tuberculosis H37Ra ATCC 25177 (MT), M. kansasii DSM 44162 (MK) and M. smegmatis ATCC 700084 (MS), see Table 1. To lower risk and make manipulation in the laboratory easier, surrogate model pathogens for M. tuberculosis can be used in laboratory studies. Avirulent M. tuberculosis strain H37Ra is very closely related to and has similar pathology as human-infecting M. tuberculosis strains, making it a good model for study especially because of the lower risk for laboratory workers. M. kansasii, the most virulent of the NTM, causes nontuberculous mycobacterial lung infections, which are now very common, and can be indistinguishable from tuberculosis. M. smegmatis is an ideal representative of a fast-growing nonpathogenic microorganism, particularly useful in studying basic cellular processes of special relevance to pathogenic mycobacteria. Therefore additionally M. kansasii and M. smegmatis were chosen as model species for screening of prospective antimycobacterial drugs to control mycobacterial diseases. The potency of the compounds was expressed as the minimum inhibitory concentration (MIC) that is defined for mycobacteria as 90% or greater (IC90) reduction of growth in comparison with the control.
Mycobacterium tuberculosis H37Ra ATCC 25177 was grown in Middlebrook broth (MB), supplemented with Oleic-Albumin-Dextrose-Catalase (OADC) supplement (Becton, Dickinson & Comp., Franklin Lakes, NJ, USA) and mycobactin J (2 μg/mL). At log phase growth, a culture sample (10 mL) was centrifuged at 15,000 rpm/20 min using a bench top centrifuge (Model CR 4-12, Jouan Inc., Winchester, VA, USA). Following the removal of the supernatant, the pellet was washed in fresh Middlebrook 7H9GC broth and re-suspended in fresh, ODAC-supplemented MB (10 mL). The turbidity was adjusted to match McFarland standard No. 1 (3 × 10^8 cfu) with MB broth. A further 1:20 dilution of the culture was then performed in MB broth. The antimicrobial susceptibility of M. tuberculosis was investigated in a 96-well plate format. In these experiments, sterile deionised water (300 µL) was added to all outer-perimeter wells of the plates to minimize evaporation of the medium in the test wells during incubation. Each evaluated compound (100 µL) was incubated with M. tuberculosis (100 µL). Dilutions of each compound were prepared in duplicate. For all synthesized compounds, final concentrations ranged from 1000 μg/mL to 8 μg/mL. All compounds were dissolved in DMSO, and subsequent dilutions were made in supplemented MB. The plates were sealed with parafilm and incubated at 37 °C for 7 days. Following incubation, a 10% addition of alamarBlue (AbD Serotec, Kidlington, UK) was mixed into each well, and readings at 570 nm and 600 nm were taken, initially for background subtraction and subsequently after 24 h re-incubation. The background subtraction is necessary for strongly coloured compounds, where the colour may interfere with the interpretation of any colour change. For non-interfering compounds, a blue colour in the well was interpreted as the absence of growth, and a pink colour was scored as growth.
The minimum inhibitory concentration (MIC) was defined as the lowest concentration of the compound at which no visible bacterial growth was observed, i.e., the MIC is the lowest concentration that prevented a visual colour change from blue to pink. MIC is defined for mycobacteria as 90% or greater (IC90) reduction of growth in comparison with the control. The MIC/IC90 value is routinely and widely used in bacterial assays and is a standard detection limit according to the Clinical and Laboratory Standards Institute (CLSI, www.clsi.org). Rifampicin and isoniazid (Sigma-Aldrich) were used as the standards as they are clinically used antimycobacterial drugs.

[5] = test system: human monocytic leukemia THP-1 cells; conditions: assessed in this line formerly, read-out: IC50 (antiproliferative activity); cited from earlier work

With `CCC(C)Oc1cccc(NC(=O)c2c(O)ccc3ccccc23)c1` (centres unmarked) [Compound 7b, N-[3-(But-2-yloxy)phenyl]-2-hydroxynaphthalene-1-carboxamide] the “viability of M. tuberculosis H37Ra (MTT)” value [1] was 7.38%, the MIC (M. smegmatis ATCC 700084) was 12 µM (≈ 4.02 µg/mL) and the IC50 [2] was over 30 µM. The MIC [3] was 47 µM (≈ 15.8 µg/mL) and the MIC [4] was 23 µM (≈ 7.71 µg/mL).

With `CCOc1ccccc1NC(=O)c1c(O)ccc2ccccc12` [Compound 3a, N-(2-Ethoxyphenyl)-2-hydroxynaphthalene-1-carboxamide] the “viability of M. tuberculosis H37Ra (MTT)” value [1] was 30.6%, the MIC (M. smegmatis ATCC 700084) was 832 µM (≈ 256 µg/mL) and the IC50 [2] was over 30 µM. The MIC [3] was 832 µM (≈ 256 µg/mL) and the MIC [4] was 26 µM (≈ 7.99 µg/mL).

In the case of `CC[C@@]1(O)C(=O)OCc2c1cc1n(c2=O)Cc2cc3ccccc3nc2-1` [camptothecin], the IC50 [5] is given as 160 ± 70 nM.
